Data reported in patent US20230338356A1, “TREATMENT OF AUTOIMMUNE SKIN DISEASE” (Aslan Pharmaceuticals Pte Ltd, priority 2022, published 2023).

Key:
PMEL T cell = assay: Flow cytometry of PMEL T cell counts in tissues of vitiligo mouse model; type: in vivo
[1] = system: proliferating CD3+ T cells in human hair follicles; assay: CD3/Ki-67 immunofluorescence of cultured human hair follicles after CD3/CD28 activation; type: cell-based; details: 70 or 140 nM farudodstat + 25 μg/ml CD3/CD28, vs CD3/CD28 alone
Method: (§1) Human hair follicle samples were obtained after informed after informed, written patient consent and ethics committee approval (University of Muenster 2015-602-f-S) and the Comite de Bioetica de la Universidad Fernando Pessoa Canarias (03 (2020-06-22)). This study was conducted according to the Declaration of Helsinki principles.
Cryosections of cultured human hair follicles were immunostained, using antibodies against the human CD3 transmembrane protein of T-lymphocytes (THERMOFISHER, Cat. 15-0038-45, clone UCHT1) and Ki-67, which is a marker of proliferation (ABCAM. Cat. ab15580). Fluorescent images were acquired using the Keyence BZ-X810 inverted microscope and CD3 and double positive cells were counted in epithelium and mesenchyme along the entire hair follicle. The number of proliferative CD3+ T-cells is given as a total number of double positive cells per hair follicle.
(§2) Human hair follicles (HF) were cultured on Day 0 in 48-well plates (1 HF per […]) at 37° C. with 5% CO2 in a media William's E media+RPMI (Gibco, Life Technologies) supplemented with 10 ng/ml hydrocortisone (Sigma Aldrich), 10 μg/ml insulin (Sigma Aldrich), 2 mM L-glutamine (Sigma Aldrich), and 1% penicillin/streptomycin mix (Gibco).
On Day 1, anagen VI HFs were selected for further culture. For quality control, only HFs that grew at least 3% from Day 0 to Day 1 were selected for continued experimentation, […]

C3H/HeJ mice = assay: Hair coverage in alopecia areata (AA) skin-graft mouse model; type: in vivo; details: 150 or 300 mg/kg/day oral gavage once daily, week 8 time point (10 weeks after engraftment), vs vehicle
Method: The C3H/HeJ mouse strain is known to spontaneously develop alopecia (AA) at a low frequency over a prolonged time frame. Transplantation of AA-affected skin from a C3H/HeJ mouse to unaffected C3H/HeJ recipients will induce the development of AA in nearly 100% of recipients over 4-8 weeks. Accordingly, to produce the AA mouse model, AA-affected C3H/HeJ skin was grafted onto groups of unaffected C3H/HeJ mice. The following treatment groups (n=10 per treatment group) were tested: • 1. Vehicle 0.5% methylcellulose (negative control) • 2. 150 mg/kg/day farudodstat • 3. 300 mg/kg/day farudodstat Treatments were administered once daily by oral gavage starting 2 weeks after engraftment and concluded after 12 weeks (84 days) of treatment. Photographs were taken at baseline, and every 4 weeks until the end of study Ventral hair growth was scored based on the photographs. Any mouse that had >98% hair coverage was classified as ‘no hair loss’.

MHC Class I = assay: MHC-I immunostaining of cultured human hair follicles after CD3/CD28 activation; type: cell-based; details: 70 or 140 nM farudodstat + 25 μg/ml CD3/CD28, vs CD3/CD28 alone
Method: as §1
Cryosections of cultured human hair follicles were immunostained, using a monoclonal mouse antibody against human MHC-I (DAKO, Cat. R7000, clone W6/32). Fluorescent images were acquired using the Keyence BZ-X810 inverted microscope and images were analysed using ImageJ software.
as §2
On Day 1, anagen VI HFs were selected for further culture. For quality control, only HFs that grew at least 3% from Day 0 to Day 1 were selected for continued experimentation,
In order to induce hair follicle immune privilege collapse and to activate resident intra/perifollicular immune cells, the hair follicles were pre-treated with CD3/CD28. […]

Krt14-KitL* (SCF) mice = assay: Vitiligo scoring in vitiligo mouse model; type: in vivo; details: 6 weeks (30 treatment days)

## COc1cccc(-c2cc(F)c(Nc3ncccc3C(=O)O)c(F)c2)c1 [farudodstat, 2-(3,5-difluoro-3′-methoxybiphenyl-4-ylamino) nicotinic acid]
PMEL T cell; 150 mg/kg/day oral gavage, end of experiment, flow cytometry
  mean PMEL count, 150 mg/kg/day compared to 75 mg/kg/day: greater reduction in mean PMEL count compared to 75 mg/kg/day
PMEL T cell; 75 and 150 mg/kg/day oral gavage, end of experiment, flow cytometry
  mean PMEL T cell count, dermis and epidermis: reduction in mean Pmel T cell count
PMEL T cell; oral gavage, compared with anti-IFNγ 250 μg twice a week IP
  mean PMEL count in the spleen: reduction in mean PMEL count in the spleen that was even greater than that observed for anti-IFNγ
[1]
  CD3+ T cell expansion (% of proliferating T-cells in hair follicles): T cell expansion was reduced
C3H/HeJ mice
  mean % hair coverage: slight improvement in % hair coverage compared to the mice treated with vehicle
MHC Class I
  MHC Class I expression levels in hair follicles: decreased MHC Class I expression levels
Krt14-KitL* (SCF) mice; 75 mg/kg/day oral gavage, vs vehicle
  final mean vitiligo score: improvement in vitiligo score compared to the vehicle treated control group
Krt14-KitL* (SCF) mice; 150 mg/kg/day oral gavage, vs vehicle and vs 75 mg/kg/day
  final mean vitiligo score: greater improvement in vitiligo score compared to the 75 mg/kg/day group
